Patent US20040191168A1, “Tumor cell killing by cell cycle checkpoint abrogation combined with Inhibition of the classical mitogen activated protein (map) kinase pathway” (priority 2000, published 2004)
“And” between values parts separate entries of the source, which are not always exact repeats. Equal values may be shown once.

Assays:
p42/44 MAPK = assay: Phospho-MAPK immunoblot in U937 cells; type: cell-based, human; conditions: UCN-01 150 nM, MEK inhibitor coincubated with UCN-01, 2 h to 18 h
Description: Immunoblot and Immunoprecipitation Analysis. Whole-cell pellets were lysed by sonication in 1× sample buffer [62.5 mM Tris base (pH6.8), 2% SDS, 50 mM DTT, 10% glycerol, 0.1% bromphenol blue, and […] each chymostatin, leupeptin, aprotinin, pepstatin, and soybean trypsin inhibitor] and boiled for 5 min. For analysis of phospho-proteins, 1 mM each Na vanadate and Na PPi was added to the sample buffer. Protein samples were collected from the supernatant after centrifugation of the samples at 12,800 3 g for 5 min, and protein was quantified using Coomassie Protein Assay Reagent (Pierce, Rock-ford, Ill.). Equal amounts of protein ([…]) were separated by SDS-PAGE and electrotransferred onto a nitrocellulose membrane. For blotting phospho-proteins, no SDS was included in the transfer buffer. The blots were blocked with 5% milk in PBS-Tween 20 (0.1%) at room temperature for 1 h and probed with the appropriate dilution of primary antibody overnight at 4° C. The blots were washed twice in PBS-Tween 20 for 15 min and then incubated with a 1:2000 dilution of horseradish peroxidase-conjugated secondary antibody (Kirkegaard & Perry, Gaithersburg, Md.) in 5% milk/PBS-Tween 20 at room temperature for 1 h. […] Protein samples were centrifuged at 12,800×g for 30 min and quantified. […]

colon tumor cells = conditions: mice (Sebolt-Leopold et al., 1999); cited from earlier work
U937 cells = assay: Loss of mitochondrial membrane potential (reduced DiOC6 uptake, flow cytometry) in U937 cells; type: cell-based, human; conditions: 18 h, PD184352 10 μM, GFX 1 μM, safingol 2 μM, mean ± SD
Description: Experimental Format. All of the experiments were performed using logarithmically growing cells (3-5×10^5 cells/ml). Cell suspensions were placed in sterile 25 cm^2 T-flasks (Corning, Corning, N.Y.) and incubated with MEK or PKC inhibitors for 30 min at 37° C. At the end of this period, UCN-01 (or in some cases, caffeine) was added to the suspension, and the flasks were placed in 37° C./5% CO2 incubator at various intervals, generally 18 h. In some studies, the p38 MAP kinase inhibitor SB203580 was added concurrently with MEK inhibitors. After drug treatment, cells were harvested and subjected to further analysis as described below.
Analysis of Mitochondrial Membrane Potential (ΔΨm). Cells 2×10^5 were incubated with 40 nM DiOC6 (Molecular Probes Inc., Eugene, Oreg.) in PBS at 37° C. for 20 min and then analyzed by flow cytometry as described previously (Wang et al., 1999).

T47D cells = assay: Colony forming (clonogenic) assay in T47D cells; type: cell-based, human; conditions: mock irradiated, 25 μM PD98059, 150 nM UCN-01, replated 48 h, ± SEM
Description: (§1) Colony forming (clonogenic) assay. Cells were plated 36 h prior to experimentation. Cells were pre-treated with MEK1/2 inhibitor as indicated, 2 h prior to exposure. Cells were irradiated (2 Gy). After a further 48 h, cells were isolated by tryptic digestion and single cell suspensions plated on Linbro® plates at densities of 500 cells/well and 1000 cells/well. Colony formation was defined as a colony of 50 cells or greater, 10 days after plating.

MCF7 cells = assay: Colony forming (clonogenic) assay in MCF7 cells; type: cell-based, human; conditions: 25 μM PD98059, 150 nM UCN-01, replated 48 h, ± SEM
Description: as §1

DU145 cells = assay: Colony forming (clonogenic) assay in DU145 cells; type: cell-based, human; conditions: 25 μM PD98059, 150 nM UCN-01, replated 48 h, ± SEM
Description: as §1

MDA-MB-231 cells = assay: Colony forming (clonogenic) assay in MDA-MB-231 cells; type: cell-based, human; conditions: MDA-MB-231 (MDA), 25 μM PD98059, 150 nM UCN-01, replated 48 h, ± SEM
Description: as §1

| Structure (SMILES) | phosphorylation (activation) of MAPK (p42/44 MAPK) | in vivo growth of colon tumor cells (colon tumor cells) | "Low" DiOC6 (% cells) (U937 cells) | clonogenic survival (colonies, normalized to control unirradiated cells = 100%) (T47D cells) [%] | clonogenic survival (colonies, normalized to control unirradiated cells = 100%) (MCF7 cells; MCF7, 2 Gy) [%] | clonogenic survival (colonies, normalized to control unirradiated cells = 100%) (MCF7 cells; MCF7, mock irradiated) [%] | clonogenic survival (colonies, normalized to control unirradiated cells = 100%) (DU145 cells; DU145, 2 Gy) [%] | clonogenic survival (colonies, normalized to control unirradiated cells = 100%) (DU145 cells; DU145, mock irradiated) [%] | clonogenic survival (colonies, normalized to control unirradiated cells = 100%) (MDA-MB-231 cells; 2 Gy) [%] | clonogenic survival (colonies, normalized to control unirradiated cells = 100%) (MDA-MB-231 cells; mock irradiated) [%] |
| --- | --- | --- | --- | --- | --- | --- | --- | --- | --- | --- |
| O=C(NOCC1CC1)c1ccc(F)c(F)c1Nc1ccc(I)cc1Cl [PD184352] | essentially complete | inhibit the in vivo growth of colon tumor cells in mice | 12.1 ± 0.2% and 14.7 ± 1.0% | – | – | – | – | – | – | – |
| CN[C@@H]1C[C@H]2O[C@@](C)([C@@H]1OC)n1c3ccccc3c3c4c(c5c6ccccc6n2c5c31)C(=O)N[C@H]4O [UCN-01, 7-hydroxystaurosporine] | induced phosphorylation (activation) of MAPK | – | – | 103 ± 8 | 44 ± 3 | 69 ± 6 | 68 ± 2 | 82 ± 4 | 55 ± 2 | 97 ± 3 |
